# Measured values taken from publication PMC6325200, “Effects of Microplate Type and Broth Additives on Microdilution MIC Susceptibility Assays” (Antimicrobial Agents and Chemotherapy, 2018).
# How the values were obtained:
# E. coli ATCC 25922 = experiment: microbe, parasite or virus in culture; details: n = 2
# Method in brief: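 Broth microdilution with 2-fold serial compound dilutions in MH broth, using cultures diluted 40-fold and grown at 37°C for 2 to 3 h, with or without Tween. Variants included 2% beractant added to mid-log cultures, or 50% human serum in MHB.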
# E. coli = details: literature value; cited from earlier work
# P. aeruginosa ATCC 10145 = experiment: microbe, parasite or virus in culture; details: Pseudomonas aeruginosa, n = 2
# Method in brief: (§1)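 Every plate included two controls, one row of bacteria alone and one of medium only. Test agents and standard antibiotics underwent twofold dilution series in 96-well format, and cultures were diluted 40-fold into MH broth in the presence or absence of Tween before 2–3 h at 37°C.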
# A. baumannii ATCC 19606 = experiment: microbe, parasite or virus in culture; details: Acinetobacter baumannii, n = 2
# Method in brief: as §1
# K. pneumoniae ATCC 13883 = experiment: microbe, parasite or virus in culture; details: Klebsiella pneumoniae, n = 2
# Method in brief: as §1
# MRSA = details: literature value; cited from earlier work
# Excerpt: TABLE 1 Literature MIC values for tested antibiotics | column: MIC (µg/ml) (reference[s]) / MRSA
smiles,measurement,setting,value
"CO[C@H]1/C=C/O[C@@]2(C)Oc3c(C)c(O)c4c(O)c(c(/C=N/N5CCN(C)CC5)c(O)c4c3C2=O)NC(=O)/C(C)=C\C=C\[C@H](C)[C@H](O)[C@@H](C)[C@@H](O)[C@@H](C)[C@H](OC(C)=O)[C@@H]1C [Rifampin, rifampin]",MIC,"E. coli ATCC 25922; Corning NBS plate, MHB −T80, no additive",4 to 8 µg/mL
same,MIC,"E. coli ATCC 25922; Corning NBS plate, MHB −T80, no additive, listed as Rifampicin",4 to 8 µg/mL
same,MIC,"E. coli ATCC 25922; Corning PS plate, MHB +0.002% T80, no further additive",8 to 16 µg/mL
same,MIC,"E. coli ATCC 25922; Corning PS plate, MHB +0.002% T80, no further additive, listed as Rifampicin",8 to 16 µg/mL
same,MIC,"E. coli ATCC 25922; Corning PS plate, MHB −T80, no additive",4 to 8 µg/mL
same,MIC,"E. coli ATCC 25922; Corning PS plate, MHB −T80, no additive, listed as Rifampicin",4 to 8 µg/mL
same,MIC,"E. coli ATCC 25922; Corning TC plate, MHB −T80, no additive",4 to 8 µg/mL
same,MIC,"E. coli ATCC 25922; Corning TC plate, MHB −T80, no additive, listed as Rifampicin",4 to 8 µg/mL
same,MIC,"E. coli ATCC 25922; Escherichia coli, ATCC25922, 24 h, Corning NBS, MH + 2% LHB, 2% LS",4 to 8 µg/mL
same,MIC,"E. coli ATCC 25922; Escherichia coli, ATCC25922, 24 h, Corning NBS, MH + 2% LHB, 50% HS",8 µg/mL
same,MIC,"E. coli ATCC 25922; Escherichia coli, ATCC25922, 24 h, Corning NBS, MH + 2% LHB, no additive",2 to 4 µg/mL
same,MIC,"E. coli ATCC 25922; Escherichia coli, ATCC25922, 24 h, Corning NBS, MH + T80, 2% LS",4 to 8 µg/mL
same,MIC,"E. coli ATCC 25922; Escherichia coli, ATCC25922, 24 h, Corning NBS, MH + T80, 50% HS",8 µg/mL
same,MIC,"E. coli ATCC 25922; Escherichia coli, ATCC25922, 24 h, Corning PS, MH + 2% LHB, 2% LS",4 to 8 µg/mL
same,MIC,"E. coli ATCC 25922; Escherichia coli, ATCC25922, 24 h, Corning PS, MH + 2% LHB, 50% HS",4 to 8 µg/mL
same,MIC,"E. coli ATCC 25922; Escherichia coli, ATCC25922, 24 h, Corning PS, MH + 2% LHB, no additive",4 to 8 µg/mL
same,MIC,"E. coli ATCC 25922; Escherichia coli, ATCC25922, 24 h, Corning PS, MH + T80, 2% LS",4 to 8 µg/mL
same,MIC,"E. coli ATCC 25922; Escherichia coli, ATCC25922, 24 h, Corning PS, MH + T80, 50% HS",8 µg/mL
same,MIC,"E. coli ATCC 25922; Escherichia coli, ATCC25922, 24 h, Corning TC, MH + 2% LHB, 2% LS",8 µg/mL
same,MIC,"E. coli ATCC 25922; Escherichia coli, ATCC25922, 24 h, Corning TC, MH + 2% LHB, 50% HS",8 to 16 µg/mL
same,MIC,"E. coli ATCC 25922; Escherichia coli, ATCC25922, 24 h, Corning TC, MH + 2% LHB, no additive",8 µg/mL
same,MIC,"E. coli ATCC 25922; Escherichia coli, ATCC25922, 24 h, Corning TC, MH + T80, 2% LS",4 to 8 µg/mL
same,MIC,"E. coli ATCC 25922; Escherichia coli, ATCC25922, 24 h, Corning TC, MH + T80, 50% HS",8 µg/mL
same,MIC,"E. coli ATCC 25922; Escherichia coli, ATCC25922, 24 h, Trek PS, MH + 2% LHB, 2% LS",2 to 4 µg/mL
same,MIC,"E. coli ATCC 25922; Escherichia coli, ATCC25922, 24 h, Trek PS, MH + 2% LHB, 50% HS",4 µg/mL
same,MIC,"E. coli ATCC 25922; Escherichia coli, ATCC25922, 24 h, Trek PS, MH + 2% LHB, no additive",4 to 8 µg/mL
same,MIC,"E. coli ATCC 25922; Escherichia coli, ATCC25922, 24 h, Trek PS, MH + T80, 2% LS",4 µg/mL
same,MIC,"E. coli ATCC 25922; Escherichia coli, ATCC25922, 24 h, Trek PS, MH + T80, 50% HS",4 to 8 µg/mL
same,MIC,"E. coli ATCC 25922; Escherichia coli, ATCC25922, Corning NBS plate, MHB +0.002% T80, no further additive",8 µg/mL
same,MIC,"E. coli ATCC 25922; Escherichia coli, ATCC25922, Corning NBS plate, MHB −T80, no additive",4 to 8 µg/mL
same,MIC,"E. coli ATCC 25922; Escherichia coli, ATCC25922, Corning NBS, MH, 2% LS",8 µg/mL
same,MIC,"E. coli ATCC 25922; Escherichia coli, ATCC25922, Corning NBS, MH, 50% HS",8 µg/mL
same,MIC,"E. coli ATCC 25922; Escherichia coli, ATCC25922, Corning PS plate, MHB +0.002% T80, no further additive",8 to 16 µg/mL
same,MIC,"E. coli ATCC 25922; Escherichia coli, ATCC25922, Corning PS plate, MHB −T80, no additive",4 to 8 µg/mL
same,MIC,"E. coli ATCC 25922; Escherichia coli, ATCC25922, Corning PS, MH, 2% LS",8 µg/mL
same,MIC,"E. coli ATCC 25922; Escherichia coli, ATCC25922, Corning PS, MH, 50% HS",4 to 8 µg/mL
same,MIC,"E. coli ATCC 25922; Escherichia coli, ATCC25922, Corning TC plate, MHB +0.002% T80, no further additive",8 µg/mL
same,MIC,"E. coli ATCC 25922; Escherichia coli, ATCC25922, Corning TC plate, MHB −T80, no additive",4 to 8 µg/mL
same,MIC,"E. coli ATCC 25922; Escherichia coli, ATCC25922, Corning TC, MH, 2% LS",8 µg/mL
same,MIC,"E. coli ATCC 25922; Escherichia coli, ATCC25922, Corning TC, MH, 50% HS",8 µg/mL
same,MIC,"E. coli ATCC 25922; Escherichia coli, ATCC25922, Nunc PS plate, MHB +0.002% T80",4 to 8 µg/mL
same,MIC,"E. coli ATCC 25922; Escherichia coli, ATCC25922, Nunc PS plate, MHB −T80",4 µg/mL
same,MIC,"E. coli ATCC 25922; Escherichia coli, ATCC25922, Nunc U TC plate, MHB +0.002% T80",8 µg/mL
same,MIC,"E. coli ATCC 25922; Escherichia coli, ATCC25922, Nunc U TC plate, MHB −T80",4 to 8 µg/mL
same,MIC,"E. coli ATCC 25922; Escherichia coli, ATCC25922, Nunc flat TC plate, MHB +0.002% T80",8 µg/mL
same,MIC,"E. coli ATCC 25922; Escherichia coli, ATCC25922, Nunc flat TC plate, MHB −T80",4 µg/mL
same,MIC,"E. coli ATCC 25922; Escherichia coli, ATCC25922, Trek PS plate, MHB +0.002% T80, no further additive",8 to 16 µg/mL
same,MIC,"E. coli ATCC 25922; Escherichia coli, ATCC25922, Trek PS plate, MHB −T80, no additive",4 µg/mL
same,MIC,"E. coli ATCC 25922; Escherichia coli, ATCC25922, Trek PS, MH, 2% LS",4 to 8 µg/mL
same,MIC,"E. coli ATCC 25922; Escherichia coli, ATCC25922, Trek PS, MH, 50% HS",8 µg/mL
same,MIC,"E. coli ATCC 25922; Trek PS plate, MHB +0.002% T80, no further additive",8 to 16 µg/mL
same,MIC (literature),E. coli,"2 ([74], [75]) µg/ml"
same,MIC,"P. aeruginosa ATCC 10145; ATCC10145, Corning NBS, MHB +T80",32 µg/mL
same,MIC,"P. aeruginosa ATCC 10145; ATCC10145, Corning NBS, MHB -T80",16 to 32 µg/mL
same,MIC,"P. aeruginosa ATCC 10145; ATCC10145, Corning PS, MHB +T80",32 to 64 µg/mL
same,MIC,"P. aeruginosa ATCC 10145; ATCC10145, Corning PS, MHB -T80",16 to 32 µg/mL
same,MIC,"P. aeruginosa ATCC 10145; ATCC10145, Corning TC, MHB +T80",32 µg/mL
same,MIC,"P. aeruginosa ATCC 10145; ATCC10145, Corning TC, MHB -T80",32 µg/mL
same,MIC,"A. baumannii ATCC 19606; ATCC19606, Corning NBS, MHB +T80",2 µg/mL
same,MIC,"A. baumannii ATCC 19606; ATCC19606, Corning NBS, MHB -T80",2 µg/mL
same,MIC,"A. baumannii ATCC 19606; ATCC19606, Corning PS, MHB +T80",2 µg/mL
same,MIC,"A. baumannii ATCC 19606; ATCC19606, Corning PS, MHB -T80",2 µg/mL
same,MIC,"A. baumannii ATCC 19606; ATCC19606, Corning TC, MHB +T80",2 µg/mL
same,MIC,"A. baumannii ATCC 19606; ATCC19606, Corning TC, MHB -T80",2 to 4 µg/mL
same,MIC,"K. pneumoniae ATCC 13883; ATCC13883, Corning NBS, MHB +T80",16 µg/mL
same,MIC,"K. pneumoniae ATCC 13883; ATCC13883, Corning NBS, MHB -T80",16 µg/mL
same,MIC,"K. pneumoniae ATCC 13883; ATCC13883, Corning PS, MHB +T80",16 to 64 µg/mL
same,MIC,"K. pneumoniae ATCC 13883; ATCC13883, Corning PS, MHB -T80",8 to 16 µg/mL
same,MIC,"K. pneumoniae ATCC 13883; ATCC13883, Corning TC, MHB +T80",16 µg/mL
same,MIC,"K. pneumoniae ATCC 13883; ATCC13883, Corning TC, MHB -T80",16 µg/mL
same,MIC (literature),MRSA,0.015 ([62]) µg/ml
